In brackets after ≈: the same amount, converted by molar mass. Activity calls are given as the source filed them. The calls are words filed in the database; no cut-off is given here.
Tests used:
HEL [1] = assay: Cytotoxicity against HEL cells assessed as cell growth inhibition incubated for 72 hrs by MTT assay; assay type: functional, cell-based, Homo sapiens
SW480 = assay: Cytotoxicity against human SW480 cells assessed as cell growth inhibition incubated for 72 hrs by MTT assay; assay type: functional, cell-based; settings: Homo sapiens, SW480, 72 h
[2] = Solubility of compound in PBS at pH 7.4 at 2 mg measured for 24 hrs by HPLC-UV analysis; assay type: physicochemical
MDA-MB-231 [3] = test system: MDA-MB-231
Description: (§1) Cytotoxicity against human MDA-MB-231 cells assessed as cell growth inhibition incubated for 72 hrs by MTT assay

HEL [4] = assay: Induction of apoptosis in HEL cells assessed as downregulation of PARP expression at 0.1 to 0.4 uM incubated for 48 hrs by Western blot analysis; assay type: functional, cell-based; settings: Homo sapiens, dose 0.1-0.4 µM
HEL [5] = assay: Induction of apoptosis in HEL cells assessed as downregulation of caspase-3 expression at 0.1 to 0.4 uM incubated for 48 hrs by Western blot analysis; assay type: functional, cell-based; settings: Homo sapiens, dose 0.1-0.4 µM
HEL [6] = assay: Induction of apoptosis in HEL cells assessed as downregulation of caspase-9 expression at 0.1 to 0.4 uM incubated for 48 hrs by Western blot analysis; assay type: functional, cell-based; settings: Homo sapiens, dose 0.1-0.4 µM
HEL [7] = assay: Induction of apoptosis in HEL cells assessed as upregulation of cleaved PARP expression at 0.1 to 0.4 uM incubated for 48 hrs by Western blot analysis; assay type: functional, cell-based; settings: Homo sapiens, dose 0.1-0.4 µM
HEL [8] = assay: Induction of apoptosis in HEL cells assessed as upregulation of cleaved caspase-3 expression at 0.1 to 0.4 uM incubated for 48 hrs by Western blot analysis; assay type: functional, cell-based; settings: Homo sapiens, dose 0.1-0.4 µM
HEL [9] = assay: Induction of apoptosis in HEL cells assessed as upregulation of cleaved caspase-9 expression at 0.1 to 0.4 uM incubated for 48 hrs by Western blot analysis; assay type: functional, cell-based; settings: Homo sapiens, dose 0.1-0.4 µM
[10] = target: T1, Friend leukemia integration 1 transcription factor (Homo sapiens) (UniProt Q01543); assay: Inhibition of Fli-1 in HEL cells by Western blot analysis; assay type: cell-based; settings: dose 0.1-0.4 µM
T1 sequence (whole entry): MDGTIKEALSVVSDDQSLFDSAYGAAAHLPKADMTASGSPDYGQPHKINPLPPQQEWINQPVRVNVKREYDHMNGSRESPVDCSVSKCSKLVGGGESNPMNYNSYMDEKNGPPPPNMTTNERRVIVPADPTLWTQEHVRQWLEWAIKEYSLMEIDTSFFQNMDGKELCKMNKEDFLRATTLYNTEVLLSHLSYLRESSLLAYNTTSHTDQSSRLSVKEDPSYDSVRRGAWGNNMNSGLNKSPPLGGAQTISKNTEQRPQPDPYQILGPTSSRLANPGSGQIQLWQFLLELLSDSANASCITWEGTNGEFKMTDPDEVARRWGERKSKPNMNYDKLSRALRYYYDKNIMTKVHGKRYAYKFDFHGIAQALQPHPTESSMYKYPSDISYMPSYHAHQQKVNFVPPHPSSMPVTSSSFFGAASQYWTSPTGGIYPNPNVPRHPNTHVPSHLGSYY

[11] = target: T1, Friend leukemia integration 1 transcription factor (Homo sapiens); assay: Binding affinity to Fli-1 in HEL cells assessed as increase in thermal stability at 0.4 uM preincubated for 1 hr followed by heating at 40 to 60 degreeC by CETSA assay; assay type: cell-based
MDA-MB-231 [12] = assay: cells; settings: Homo sapiens, MDA-MB-231, 72 h
Description: as §1

Row | solubility at 24 h [2] [µg/mL] | IC50 (MDA-MB-231 [12]) [nM] | Compound | IC50 (SW480) [nM] | IC50 (HEL [1]; Homo sapiens, HEL, 72 h) [nM] | also measured
1 | 8900 (≈ 15.1 mM) |  | COc1cc(OC)c2c(c1)O[C@@]1(c3ccc(OCCCCCN4CCN(C)CC4)cc3)[C@H](c3ccccc3)C[C@@H](O)[C@@]21O (racemic; form 1) | 550 |  | IC50 (HEL [1]; hel): 230 nM; IC50 (MDA-MB-231 [3]): 110 nM
2 |  |  | COc1cc(OC)c2c(c1)O[C@@]1(c3ccc(OCCCCCN4CCN(C)CC4)cc3)[C@H](c3ccccc3)C[C@@H](O)[C@@]21O (racemic; form 2) |  |  | Activity (HEL [4]): Active; Activity (HEL [5]): Active; Activity (HEL [6]): Active; Activity (HEL [7]): Active; Activity (HEL [8]): Active; Activity (HEL [9]): Active; inhibition [10]: Dose-Dependent Effect; Activity [11]: Active
3 | 50 (≈ 0.119 mM) | 350 | COc1cc(OC)c2c(c1)O[C@@]1(c3ccc(O)cc3)[C@H](c3ccccc3)C[C@@H](O)[C@@]21O (racemic) | > 1000 | 180 | 
4 |  | > 1000 | COc1cc(OC)c2c(c1)O[C@@]1(c3ccc(OC)c(CN4CCOCC4)c3)[C@H](c3ccccc3)C[C@@H](O)[C@@]21O (racemic) | > 1000 | 140 | 
5 |  | > 1000 | CCN(CC)CCOc1ccc([C@@]23Oc4cc(OC)cc(OC)c4[C@]2(O)[C@H](O)C[C@H]3c2ccccc2)cc1 (racemic) | > 1000 | > 1000 | 
